The source of these data is EP3033337B1, “SUBSTITUTED IMIDAZOLES AS N-TYPE CALCIUM CHANNEL BLOCKERS” (Janssen Pharmaceutica NV, priority 2013, dated 2015).

The target of assay [1] is T1, human N-type Ca channel (Homo sapiens, UniProt Q00975). Briefly: Calcium influx assay (FDSS), KCl depolarization, Fluo8 dye. Format: cell-based. Also on record: host or cells: HEK 293. The conditions noted are these: HEK 293 cells expressing human N-type Ca channel; 100 mM KCl; read-out: N Type IC50 Data FDSS. As for the experimental part:
All cell culture reagents were procured from HyClone and other reagents were from Fisher. Recombinant HEK 293 cells expressing human N-type Ca channel (Millipore) were maintained in DMEM F12 containing 10% FBS and selection antibiotics at 37 °C in 5% CO2.
Cells were incubated at 30 °C in 5% CO2 overnight. The medium was removed and cells were loaded with Fluo8 dye (AAT Bioquest) at 37 °C and 30 °C, 30 min each in darkness. Cells were washed four times with wash buffer (16 mM Herep pH 7.2, 2 mM CaCl2, 1 mM MgCl2, 5 mM glucose, 140 mM choline chloride and 2 mM KCl) leaving 15 µL buffer after the last wash. Compounds of Formula (I), serially diluted, were added to the cell plate. The plates were incubated in darkness for 15 min. Cells were depolarized with 100 mM KCl and Ca influx was measured.

The target of assay [2] is T1, human N-type Ca channel. Briefly: Electrophysiological response, QPatch (depolarization -80 mV to +20 mV). (In general: Patch clamp records ionic current or voltage across a cell membrane.)
[3] abbreviates: N Type IC50 Data Qpatch Pulse=1, Pulse=1, concentration range 0.3-10 µM.
[4] abbreviates: N Type IC50 Data Qpatch Pulse=15, Pulse=15, concentration range 0.3-10 µM.
[5] abbreviates: read-out: Qpatch Pulse=1 (percent inhibition).
Where [6] appears, read: read-out: Qpatch Pulse=15 (percent inhibition).
The mark [7] stands for this setting: N Type IC50 Data Qpatch Pulse=15, Pulse=15, concentration range 0.01-1 µM.
[8] abbreviates: read-out: N Type IC50 Data Qpatch Pulse=15, Pulse=15, concentration range 0.01-1 µM.
Where [9] appears, read: N Type IC50 Data Qpatch Pulse=1, Pulse=1, concentration range 0.01-1 µM.

Where two headings read alike, the source gives them in different places.

T1 sequence (Q00975 whole entry): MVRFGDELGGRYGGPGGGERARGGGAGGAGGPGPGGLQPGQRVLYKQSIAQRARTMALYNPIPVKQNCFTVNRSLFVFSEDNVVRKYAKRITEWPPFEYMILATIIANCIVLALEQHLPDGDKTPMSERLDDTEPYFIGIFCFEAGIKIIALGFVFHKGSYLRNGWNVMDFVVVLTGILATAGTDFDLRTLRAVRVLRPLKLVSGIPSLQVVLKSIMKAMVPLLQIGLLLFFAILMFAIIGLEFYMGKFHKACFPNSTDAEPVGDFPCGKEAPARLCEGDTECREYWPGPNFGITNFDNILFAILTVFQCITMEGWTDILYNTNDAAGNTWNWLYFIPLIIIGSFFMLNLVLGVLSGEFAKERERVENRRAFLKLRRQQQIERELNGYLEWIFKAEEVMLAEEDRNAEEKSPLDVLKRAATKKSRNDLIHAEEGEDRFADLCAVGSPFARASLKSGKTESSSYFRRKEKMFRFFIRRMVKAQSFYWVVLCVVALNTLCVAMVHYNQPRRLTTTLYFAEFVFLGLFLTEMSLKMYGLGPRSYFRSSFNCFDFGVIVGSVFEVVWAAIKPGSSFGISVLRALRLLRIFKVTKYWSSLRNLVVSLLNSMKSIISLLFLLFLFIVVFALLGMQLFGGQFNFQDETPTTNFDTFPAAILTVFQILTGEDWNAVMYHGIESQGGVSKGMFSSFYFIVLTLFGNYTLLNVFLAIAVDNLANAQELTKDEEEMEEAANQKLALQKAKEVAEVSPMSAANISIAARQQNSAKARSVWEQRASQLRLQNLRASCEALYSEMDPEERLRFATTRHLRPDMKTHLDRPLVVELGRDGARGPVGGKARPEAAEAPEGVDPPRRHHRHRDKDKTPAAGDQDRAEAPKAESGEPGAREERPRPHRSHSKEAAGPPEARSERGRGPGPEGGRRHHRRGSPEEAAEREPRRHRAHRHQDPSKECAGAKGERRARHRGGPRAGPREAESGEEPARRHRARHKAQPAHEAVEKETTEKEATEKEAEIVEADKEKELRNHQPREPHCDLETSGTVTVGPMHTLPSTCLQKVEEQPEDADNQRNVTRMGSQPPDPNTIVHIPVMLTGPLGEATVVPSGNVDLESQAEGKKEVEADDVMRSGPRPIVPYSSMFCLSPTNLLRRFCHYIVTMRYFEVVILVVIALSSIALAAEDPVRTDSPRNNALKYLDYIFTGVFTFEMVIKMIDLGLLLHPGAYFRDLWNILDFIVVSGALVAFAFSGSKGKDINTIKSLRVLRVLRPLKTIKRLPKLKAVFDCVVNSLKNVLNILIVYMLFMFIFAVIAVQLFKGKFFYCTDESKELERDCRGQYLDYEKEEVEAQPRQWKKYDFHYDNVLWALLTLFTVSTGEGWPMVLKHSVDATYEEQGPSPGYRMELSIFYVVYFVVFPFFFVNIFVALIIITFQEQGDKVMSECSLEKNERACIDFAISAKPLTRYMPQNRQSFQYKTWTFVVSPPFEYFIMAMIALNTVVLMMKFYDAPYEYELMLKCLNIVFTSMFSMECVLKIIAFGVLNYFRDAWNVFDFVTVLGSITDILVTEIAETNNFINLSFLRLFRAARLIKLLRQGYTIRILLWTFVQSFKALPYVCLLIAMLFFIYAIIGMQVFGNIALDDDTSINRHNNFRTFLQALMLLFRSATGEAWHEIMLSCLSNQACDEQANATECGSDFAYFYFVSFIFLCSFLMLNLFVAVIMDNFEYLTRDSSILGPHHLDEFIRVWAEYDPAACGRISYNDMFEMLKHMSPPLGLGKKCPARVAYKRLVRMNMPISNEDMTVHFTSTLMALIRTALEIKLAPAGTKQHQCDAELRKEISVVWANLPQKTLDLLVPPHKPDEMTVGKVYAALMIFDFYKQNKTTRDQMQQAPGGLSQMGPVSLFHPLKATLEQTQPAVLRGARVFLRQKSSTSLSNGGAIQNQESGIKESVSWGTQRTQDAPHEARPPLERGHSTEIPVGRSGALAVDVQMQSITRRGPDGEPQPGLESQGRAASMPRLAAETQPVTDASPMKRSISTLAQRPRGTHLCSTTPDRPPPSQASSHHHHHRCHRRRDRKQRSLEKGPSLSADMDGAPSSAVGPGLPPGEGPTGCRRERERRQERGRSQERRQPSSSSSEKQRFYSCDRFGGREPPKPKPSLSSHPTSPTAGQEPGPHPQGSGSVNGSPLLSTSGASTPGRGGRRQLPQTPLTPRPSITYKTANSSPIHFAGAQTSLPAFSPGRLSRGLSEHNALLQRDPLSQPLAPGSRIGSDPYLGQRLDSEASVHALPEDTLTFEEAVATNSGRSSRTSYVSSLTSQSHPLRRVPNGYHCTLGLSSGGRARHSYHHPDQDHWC
T1 sequence (P54284 whole entry partner): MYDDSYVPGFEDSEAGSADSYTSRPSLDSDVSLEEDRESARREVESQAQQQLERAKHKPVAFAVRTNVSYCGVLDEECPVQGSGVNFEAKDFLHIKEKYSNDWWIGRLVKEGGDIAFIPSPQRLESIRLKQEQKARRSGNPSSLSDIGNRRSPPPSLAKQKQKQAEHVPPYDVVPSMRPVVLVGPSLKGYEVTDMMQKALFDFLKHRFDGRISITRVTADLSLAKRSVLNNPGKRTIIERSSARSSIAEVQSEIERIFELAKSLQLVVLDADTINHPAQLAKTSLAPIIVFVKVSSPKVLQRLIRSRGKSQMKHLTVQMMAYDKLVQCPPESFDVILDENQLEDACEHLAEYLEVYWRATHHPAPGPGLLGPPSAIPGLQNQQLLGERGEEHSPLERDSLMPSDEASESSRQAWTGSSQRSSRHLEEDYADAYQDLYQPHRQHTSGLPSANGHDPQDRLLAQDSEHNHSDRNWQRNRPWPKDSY
T1 sequence (P54289 25-956 partner limits assumed): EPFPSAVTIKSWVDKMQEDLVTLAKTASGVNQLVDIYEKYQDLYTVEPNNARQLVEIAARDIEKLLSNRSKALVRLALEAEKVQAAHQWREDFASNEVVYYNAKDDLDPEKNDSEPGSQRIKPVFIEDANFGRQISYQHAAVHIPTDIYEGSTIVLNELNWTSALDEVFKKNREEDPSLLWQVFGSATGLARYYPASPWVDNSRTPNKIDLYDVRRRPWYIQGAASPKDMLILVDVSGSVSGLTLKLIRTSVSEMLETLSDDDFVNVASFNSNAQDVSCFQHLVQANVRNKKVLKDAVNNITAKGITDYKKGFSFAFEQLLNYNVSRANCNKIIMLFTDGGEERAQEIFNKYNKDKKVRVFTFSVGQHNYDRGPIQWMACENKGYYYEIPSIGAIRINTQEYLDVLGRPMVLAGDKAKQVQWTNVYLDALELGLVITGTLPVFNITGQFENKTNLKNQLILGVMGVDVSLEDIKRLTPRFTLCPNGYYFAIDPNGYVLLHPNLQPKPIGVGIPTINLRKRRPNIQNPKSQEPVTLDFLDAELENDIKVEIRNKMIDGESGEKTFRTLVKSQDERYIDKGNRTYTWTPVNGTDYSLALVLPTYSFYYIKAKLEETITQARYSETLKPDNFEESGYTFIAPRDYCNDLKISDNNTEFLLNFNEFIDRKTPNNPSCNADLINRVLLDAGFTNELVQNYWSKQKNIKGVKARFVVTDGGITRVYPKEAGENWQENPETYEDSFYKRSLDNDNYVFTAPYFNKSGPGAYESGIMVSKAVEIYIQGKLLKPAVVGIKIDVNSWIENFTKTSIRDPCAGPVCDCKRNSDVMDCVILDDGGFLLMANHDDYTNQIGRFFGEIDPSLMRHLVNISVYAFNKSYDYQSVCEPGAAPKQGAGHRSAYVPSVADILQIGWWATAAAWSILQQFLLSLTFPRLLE
T1 sequence (P54289 957-1103 partner limits assumed): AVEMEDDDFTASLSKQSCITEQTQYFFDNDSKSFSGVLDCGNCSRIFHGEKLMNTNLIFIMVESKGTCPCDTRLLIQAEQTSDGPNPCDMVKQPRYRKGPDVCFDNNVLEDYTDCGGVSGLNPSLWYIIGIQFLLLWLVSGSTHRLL

One may read the IC50 as the concentration that gives 50% inhibition. For `COc1ccc(-n2cc(C3CC(C)(C)OC(C)(C)C3)nc2-c2ccccc2OC)cc1` [Compound 7, 2-(2-methoxyphenyl)-1-(4-methoxyphenyl)-4-(2,2,6,6-tetramethyltetrahydro-2H-pyran-4-yl)-1H-imidazole], the IC50 on human N-type Ca channel [1] was 0.113 µM; at human N-type Ca channel [2] (setting [3]), 1.17 µM; on human N-type Ca channel [2] (setting [4]), 0.68 µM.
`COc1ccccc1-c1nc(C2=CC(C)(C)OC(C)(C)C2)cn1-c1ccc(Cl)cc1` [Compound 124, 1-(4-chlorophenyl)-2-(2-methoxyphenyl)-4-(2,2,6,6-tetramethyl-3,6-dihydro-2H-pyran-4-yl)-1H-imidazole]: the IC50 at human N-type Ca channel [1] was 0.103 µM; at human N-type Ca channel [2] (setting [3]), 2.5 µM; against human N-type Ca channel [2] (setting [4]), 1.6 µM.
As a reminder, the inhibition is the share of the control response that was lost under treatment. As for `COc1ncccc1-c1nc(C2CC(C)(C)OC(C)(C)C2)c(Cl)n1-c1ccc(C#N)cc1` [Compound 91, 4-(5-chloro-2-(2-methoxypyridin-3-yl)-4-(2,2,6,6-tetramethyltetrahydro-2H-pyran-4-yl)-1H-imidazol-1-yl)benzonitrile], on human N-type Ca channel [1], the IC50 came to 1.43 µM. Further, the inhibition at 10 µM at human N-type Ca channel [2] (setting [5]) amounted to 58%; at human N-type Ca channel [2] (setting [6]), 62%.
In the case of `CC1(C)CC(c2cn(-c3ccc(Cl)cc3)c(CC3CC3)n2)CC(C)(C)O1` [Compound 55, 1-(4-chlorophenyl)-2-(cyclopropylmethyl)-4-(2,2,6,6-tetramethyltetrahydro-2H-pyran-4-yl)-1H-imidazole], the IC50 at human N-type Ca channel [1] amounted to 0.384 µM; against human N-type Ca channel [2] (setting [7]), 0.78 µM.
For `COc1ccccc1-c1nc(C2CC(C)(C)OC(C)(C)C2)cn1-c1ccc(Cl)cn1` [Compound 39, 5-chloro-2-(2-(2-methoxyphenyl)-4-(2,2,6,6-tetramethyltetrahydro-2H-pyran-4-yl)-1H-imidazol-1-yl)pyridine], the values for the IC50 on human N-type Ca channel [1], against human N-type Ca channel [2] (setting [3]) and on human N-type Ca channel [2] (setting [4]) were 0.163 µM, 1.7 µM and 1.9 µM, respectively.
For the compound `COc1ccccc1-c1nc(C2CC(C)(C)OC(C)(C)C2)cn1Cc1ccc(C#N)cc1` [Compound 99, 4-((2-(2-methoxyphenyl)-4-(2,2,6,6-tetramethyltetrahydro-2H-pyran-4-yl)-1H-imidazol-1-yl)methyl)benzonitrile], the IC50 at human N-type Ca channel [1] was 10.9 µM; at human N-type Ca channel [2] (read-out: N Type IC50 Data Qpatch Pulse=1, Pulse=1, concentration range 0.01-1 µM) it was above 1 µM; at human N-type Ca channel [2] (setting [8]), above 1 µM.
`Cn1cnnc1-c1nc(C2CC(C)(C)OC(C)(C)C2)cn1-c1ccc(Cl)cc1` [Compound 26, 3-(1-(4-chlorophenyl)-4-(2,2,6,6-tetramethyltetrahydro-2H-pyran-4-yl)-1H-imidazol-2-yl)-4-methyl-4H-1,2,4-triazole]: the IC50 is 5.76 µM on human N-type Ca channel [1], above 1 µM on human N-type Ca channel [2] (setting [9]) and above 1 µM at human N-type Ca channel [2] (setting [7]).
With `COc1ccccc1-c1nc(C2CC(C)(C)OC(C)(C)C2)cn1-c1ccc(Br)c(F)c1` [Compound 62, 1-(4-bromo-3-fluorophenyl)-2-(2-methoxyphenyl)-4-(2,2,6,6-tetramethyltetrahydro-2H-pyran-4-yl)-1H-imidazole], the figures for the IC50 on human N-type Ca channel [1] and at human N-type Ca channel [2] (setting [4]) were 0.177 µM and 0.413 µM, respectively. The inhibition at 10 µM on human N-type Ca channel [2] (setting [5]) was determined as 81%.
Regarding `COc1cnccc1-c1nc(C2CC(C)(C)OC(C)(C)C2)cn1-c1ccc(F)c(F)c1` [Compound 33, 4-(1-(3,4-difluorophenyl)-4-(2,2,6,6-tetramethyltetrahydro-2H-pyran-4-yl)-1H-imidazol-2-yl)-3-methoxypyridine], the IC50 on human N-type Ca channel [1] is 0.459 µM; at human N-type Ca channel [2] (setting [9]) it was above 1 µM; at human N-type Ca channel [2] (setting [8]), above 1 µM.
Consider `COc1ncccc1-c1nc(C2CC(C)(C)OC(C)(C)C2)cn1-c1ccc(F)cc1F` [Compound 30, 3-(1-(2,4-difluorophenyl)-4-(2,2,6,6-tetramethyltetrahydro-2H-pyran-4-yl)-1H-imidazol-2-yl)-2-methoxypyridine], for which, on human N-type Ca channel [1], the IC50 is 0.321 µM. Besides, the inhibition at 10 µM was determined as 67% at human N-type Ca channel [2] (setting [5]) and 35% at human N-type Ca channel [2] (setting [6]).
In the case of `COc1ccccc1-c1nc(C2CC(C)(C)OC(C)(C)C2)cn1-c1ccc(C#N)c(Cl)c1` [Compound 123, 2-chloro-4-(2-(2-methoxyphenyl)-4-(2,2,6,6-tetramethyltetrahydro-2H-pyran-4-yl)-1H-imidazol-1-yl)benzonitrile], the IC50 on human N-type Ca channel [1] was 0.129 µM; on human N-type Ca channel [2] (setting [9]), 0.468 µM; against human N-type Ca channel [2] (setting [7]), above 1 µM.
On to `COc1ccncc1-c1nc(C2(O)CC(C)(C)OC(C)(C)C2)cn1-c1ccc(Cl)cc1` [Compound 103, 4-(1-(4-chlorophenyl)-2-(4-methoxypyridin-3-yl)-1H-imidazol-4-yl)-2,2,6,6-tetramethyltetrahydro-2H-pyran-4-ol], for which the values for the IC50 on human N-type Ca channel [1] and against human N-type Ca channel [2] (setting [3]) were 0.367 µM and 4.3 µM, respectively. For the same compound, the inhibition at 10 µM at human N-type Ca channel [2] (setting [6]) came out at 31%.
Regarding `COc1ncccc1-c1nc(C2CC(C)(C)OC(C)(C)C2)cn1-c1ccc(F)c(F)c1` [Compound 40, 3-(1-(3,4-difluorophenyl)-4-(2,2,6,6-tetramethyltetrahydro-2H-pyran-4-yl)-1H-imidazol-2-yl)-2-methoxypyridine], the figures for the IC50 on human N-type Ca channel [1] and on human N-type Ca channel [2] (setting [4]) were 0.822 µM and 1.94 µM, respectively. The inhibition at 10 µM on human N-type Ca channel [2] (setting [5]) stood at 52%.
As for `COc1ncccc1-c1nc(C2(O)CC(C)(C)OC(C)(C)C2)cn1-c1ccc(Cl)cc1` [Compound 105, 4-(1-(4-chlorophenyl)-2-(2-methoxypyridin-3-yl)-1H-imidazol-4-yl)-2,2,6,6-tetramethyltetrahydro-2H-pyran-4-ol], the IC50 at human N-type Ca channel [1] was 0.3 µM; on human N-type Ca channel [2] (setting [9]), 0.964 µM; against human N-type Ca channel [2] (setting [3]) it was 8.3 µM; on human N-type Ca channel [2] (setting [4]), 3.82 µM; at human N-type Ca channel [2] (setting [8]), above 1 µM.
Take `COc1ncccc1-c1nc(C2CC(C)(C)OC(C)(C)C2)cn1-c1ccc(C(F)(F)F)nc1` [Compound 54, 2-methoxy-3-(4-(2,2,6,6-tetramethyltetrahydro-2H-pyran-4-yl)-1-(6-(trifluoromethyl)pyridin-3-yl)-1H-imidazol-2-yl)pyridine]: the IC50 at human N-type Ca channel [1] stood at 1.96 µM; on human N-type Ca channel [2] (setting [9]), 0.302 µM; on human N-type Ca channel [2] (setting [7]), 0.237 µM. At human N-type Ca channel [2] (Pulse=1, concentration range 0.01-1 µM), the “N Type IC50 Data Qpatch Pulse=1” value is “Poor fit”. The “N Type IC50 Data Qpatch Pulse=15” value on human N-type Ca channel [2] (Pulse=15, concentration range 0.01-1 µM) was “Poor fit”.
For the compound `COc1cc(-n2cc(C3CC(C)(C)OC(C)(C)C3)nc2-c2cccnc2OC)ccc1C#N` [Compound 77, 2-methoxy-4-(2-(2-methoxypyridin-3-yl)-4-(2,2,6,6-tetramethyltetrahydro-2H-pyran-4-yl)-1H-imidazol-1-yl)benzonitrile], the IC50 is 10 µM on human N-type Ca channel [1], above 1 µM against human N-type Ca channel [2] (setting [9]) and above 1 µM on human N-type Ca channel [2] (setting [8]).
With `COc1ccccc1-c1nc(C2CC(C)(C)OC(C)(C)C2)cn1-c1ccc(C#N)cc1F` [Compound 36, 3-fluoro-4-(2-(2-methoxyphenyl)-4-(2,2,6,6-tetramethyltetrahydro-2H-pyran-4-yl)-1H-imidazol-1-yl)benzonitrile], the IC50 on human N-type Ca channel [1] is 0.04 µM; against human N-type Ca channel [2] (setting [9]), 0.376 µM; on human N-type Ca channel [2] (setting [8]), above 1 µM.
As to `COc1cnccc1-c1nc(C2CC(C)(C)OC(C)(C)C2)cn1-c1ccc(F)cc1` [Compound 2, 4-(1-(4-fluorophenyl)-4-(2,2,6,6 tetramethyltetrahydro-2H-pyran-4-yl)-1H-imidazol-2-yl)-3-methoxypyridine], the values for the IC50 on human N-type Ca channel [1] and on human N-type Ca channel [2] (setting [4]) were 0.128 µM and 6.2 µM, respectively.
